# Results from publication PMC10023787, “Trio-pharmacophore DNA-encoded chemical library for simultaneous selection of fragments and linkers” (Nature Communications, 2023).
# Experiments:
# bovine trypsin = molecular target: T1, bovine trypsin (Bos taurus, UniProt P00760); experiment: Trypsin inhibition assay (proteolytic activity on BApNA); format: biochemical
# T1 construct: purchased Sigma-Aldrich T8003
# T1 sequence (P00760 24-246): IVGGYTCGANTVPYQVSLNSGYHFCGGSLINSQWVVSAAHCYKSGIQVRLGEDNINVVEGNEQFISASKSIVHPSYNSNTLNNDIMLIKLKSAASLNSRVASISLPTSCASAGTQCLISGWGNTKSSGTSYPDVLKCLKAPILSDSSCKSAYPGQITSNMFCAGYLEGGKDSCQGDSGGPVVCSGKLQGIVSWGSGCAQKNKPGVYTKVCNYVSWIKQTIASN
# Description: The inhibition by the benzamidine derivatives against trypsin was measured using an assay probing the enzyme proteolytic activity on the substrate Nα-Benzoyl-DL-arginine-4-nitroanilide hydrochloride (BApNA). […] 5 µl of BApNA solution (10 mM, dissolved in DMSO) were added immediately prior to the measurement. The final total volume was 100 µl per well. The measurements were performed in a Low Binding 384-well plate. The absorption was measured at 410 nm in intervals of 10 sec for 15 min at 37 °C using a Beckman Coulter’s Paradigm Detection Platform (Brea, USA). The measurements were performed in triplicate. The activity of trypsin was calculated by the hydrolysis rate of BApNA after subtraction of the background-hydrolysis rate. The curves were plotted as a function of the concentration of the inhibitor against the relative enzyme activity. Vmax was derived from the detected absorption signal for each concentration and logistic fitting was performed to obtain IC50 values using Origin 2019b (OriginLab).
# [1] = molecular target: T2, bovine carbonic anhydrase II (CAII) (Bos taurus, UniProt P00921); experiment: Carbonic anhydrase II inhibition assay (esterase activity on p-nitrophenyl acetate); format: biochemical; conditions: for remaining activity at 0.0001024 µM: 0.1024 nM compound; for remaining activity at 0.0001024 µM / remaining activity at 0.000512 µM / remaining activity at 0.00256 µM / remaining activity at 0.064 µM / remaining activity at 0.32 µM / remaining activity at 1.6 µM / remaining activity at 8 µM / remaining activity at 40 µM / remaining activity at 200 µM: source data of Fig. 2c, read-out: Normalized CA II Activity (Mean); for remaining activity at 0.000512 µM: 0.512 nM compound; for remaining activity at 0.00256 µM: 2.56 nM compound; for remaining activity at 0.064 µM: 64 nM compound; for remaining activity at 0.32 µM: 320 nM compound; for remaining activity at 1.6 µM: 1600 nM compound; for remaining activity at 8 µM: 8000 nM compound; for remaining activity at 40 µM: 40000 nM compound; for remaining activity at 200 µM: 200000 nM compound; for IC50: mean ± SE, three independent measurements, n.d: not detected
# T2 construct: purchased Sigma-Aldrich C7749
# Description: CAII inhibition assay was performed to measure the inhibitory effect of re-synthesized CBS-conjugates. The esterase activity of CAII with a chromogenic substrate p-nitrophenyl acetate (pNPA) was measured. The rates of hydrolysis were determined by an increase of absorption at 410 nm after incubating different compounds with CAII. Re-synthesized compounds were diluted in a serial spanning mM to μM concentrations. […] 5 µl of pNPA (50 mM in 20% DMSO) was added to the plate right before the measurement. The absorption was measured at 37 °C each 10 sec for 15 min using a Beckman Coulter’s Paradigm Detection Platform (Brea, USA). The initial Vmax was obtained from the increase of absorption and the Vmax was plotted against the inhibitor concentrations and logistic fitting was performed to obtain IC50 values using Origin 2019b (OriginLab) software.
# [2] = Concentration 0.1024 nM, fraction of uninhibited activity
# [3] = Concentration 0.512 nM, fraction of uninhibited activity
# [4] = Concentration 2.56 nM, fraction of uninhibited activity
# [5] = Concentration 64 nM, fraction of uninhibited activity
# [6] = Concentration 320 nM, fraction of uninhibited activity
# [7] = Concentration 1600 nM, fraction of uninhibited activity
# [8] = Concentration 8000 nM, fraction of uninhibited activity
# [9] = Concentration 40000 nM, fraction of uninhibited activity
# [10] = Concentration 200000 nM, fraction of uninhibited activity
# [11] = Concentration […], fraction of uninhibited activity
# T2 sequence (P00921 whole entry): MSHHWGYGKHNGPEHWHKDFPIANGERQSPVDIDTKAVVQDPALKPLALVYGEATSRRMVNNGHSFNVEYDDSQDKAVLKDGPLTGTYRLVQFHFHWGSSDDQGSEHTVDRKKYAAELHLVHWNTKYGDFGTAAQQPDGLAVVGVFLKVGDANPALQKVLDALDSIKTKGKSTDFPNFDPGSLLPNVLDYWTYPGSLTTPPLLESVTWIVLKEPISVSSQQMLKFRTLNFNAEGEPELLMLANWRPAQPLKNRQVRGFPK
SMILES,"mean (Figure 3c, dose-response, relative trypsin activity) (bovine trypsin; [2])","mean (Figure 3c, dose-response, relative trypsin activity) (bovine trypsin; [3])","mean (Figure 3c, dose-response, relative trypsin activity) (bovine trypsin; [4])","mean (Figure 3c, dose-response, relative trypsin activity) (bovine trypsin; [5])","mean (Figure 3c, dose-response, relative trypsin activity) (bovine trypsin; [6])","mean (Figure 3c, dose-response, relative trypsin activity) (bovine trypsin; [7])","mean (Figure 3c, dose-response, relative trypsin activity) (bovine trypsin; [8])","mean (Figure 3c, dose-response, relative trypsin activity) (bovine trypsin; [9])","mean (Figure 3c, dose-response, relative trypsin activity) (bovine trypsin; [10])","mean (Figure 3c, dose-response, relative trypsin activity) (bovine trypsin; [11])",remaining activity at 0.0001024 µM [1] [%],remaining activity at 0.000512 µM [1] [%],remaining activity at 0.00256 µM [1] [%],remaining activity at 0.064 µM [1] [%],remaining activity at 0.32 µM [1] [%],remaining activity at 1.6 µM [1] [%],remaining activity at 8 µM [1] [%],remaining activity at 40 µM [1] [%],remaining activity at 200 µM [1] [%],IC50 [1] [µM],other results
"N=C(N)c1ccc(CN)cc1 [4-Aminomethyl benzamidine, 4-aminomethyl benzamidine, reference compound]",,,,,,,,,,,,,,,,,,,,,"remaining activity at 0.0001024 µM (bovine trypsin; Concentration 0.1024 nM, fraction of uninhibited activity, read-out: mean (Figure 3c, dose-response, relative trypsin activity)): 108%; remaining activity at 0.000512 µM (bovine trypsin; Concentration 0.512 nM, fraction of uninhibited activity, read-out: mean (Figure 3c, dose-response, relative trypsin activity)): 96.5%; remaining activity at 0.00256 µM (bovine trypsin; Concentration 2.56 nM, fraction of uninhibited activity, read-out: mean (Figure 3c, dose-response, relative trypsin activity)): 102%; remaining activity at 0.064 µM (bovine trypsin; Concentration 64 nM, fraction of uninhibited activity, read-out: mean (Figure 3c, dose-response, relative trypsin activity)): 110%; remaining activity at 0.32 µM (bovine trypsin; Concentration 320 nM, fraction of uninhibited activity, read-out: mean (Figure 3c, dose-response, relative trypsin activity)): 101%; remaining activity at 1.6 µM (bovine trypsin; Concentration 1600 nM, fraction of uninhibited activity, read-out: mean (Figure 3c, dose-response, relative trypsin activity)): 106%; remaining activity at 8 µM (bovine trypsin; Concentration 8000 nM, fraction of uninhibited activity, read-out: mean (Figure 3c, dose-response, relative trypsin activity)): 103%; remaining activity at 40 µM (bovine trypsin; Concentration 40000 nM, fraction of uninhibited activity, read-out: mean (Figure 3c, dose-response, relative trypsin activity)): 82.5%; remaining activity at 200 µM (bovine trypsin; Concentration 200000 nM, fraction of uninhibited activity, read-out: mean (Figure 3c, dose-response, relative trypsin activity)): 44.6%; remaining activity at 1000 µM (bovine trypsin; Concentration 1000000 nM, fraction of uninhibited activity, read-out: mean (Figure 3c, dose-response, relative trypsin activity)): 12.9%; IC50 (bovine trypsin; mean ± SE, three independent measurements, n.d: not detected): 147 µM"
NS(=O)(=O)c1ccc(NC(=O)COc2ccccc2OCC(=O)NCCNC(=O)/C=C/c2ccc(-c3ccccc3C(F)(F)F)o2)cc1 [Compound C-2],,,,,,,,,,,91.3,93.6,96.1,83,61.4,43.3,25.6,15,14.3,0.67,improvement in the IC50 value ([1]; compared with sulfanilamide): 20 fold

# Now from value to compound, other results behind:
"mean (Figure 3c, dose-response, relative trypsin activity) (bovine trypsin; [2])","mean (Figure 3c, dose-response, relative trypsin activity) (bovine trypsin; [3])","mean (Figure 3c, dose-response, relative trypsin activity) (bovine trypsin; [4])","mean (Figure 3c, dose-response, relative trypsin activity) (bovine trypsin; [5])","mean (Figure 3c, dose-response, relative trypsin activity) (bovine trypsin; [6])","mean (Figure 3c, dose-response, relative trypsin activity) (bovine trypsin; [7])","mean (Figure 3c, dose-response, relative trypsin activity) (bovine trypsin; [8])","mean (Figure 3c, dose-response, relative trypsin activity) (bovine trypsin; [9])","mean (Figure 3c, dose-response, relative trypsin activity) (bovine trypsin; [10])","mean (Figure 3c, dose-response, relative trypsin activity) (bovine trypsin; [11])",remaining activity at 0.0001024 µM [1] [%],remaining activity at 0.000512 µM [1] [%],remaining activity at 0.00256 µM [1] [%],remaining activity at 0.064 µM [1] [%],remaining activity at 0.32 µM [1] [%],remaining activity at 1.6 µM [1] [%],remaining activity at 8 µM [1] [%],remaining activity at 40 µM [1] [%],remaining activity at 200 µM [1] [%],IC50 [1] [µM],SMILES,other results
0.916,1.0035,1.023,0.976,0.9546,0.8556,0.5625,0.1537,0.03111,0.9246,,,,,,,,,,,N=C(N)c1ccc(CNC(=O)C2CCC(C(=O)NCCNC(=S)Nc3cccc(I)c3)CC2)cc1 (stereo not drawn) [Compound T-4],"mean (Figure 3c, dose-response, relative trypsin activity) (bovine trypsin; Concentration 440000 nM, fraction of uninhibited activity): 0.01768"
0.9598,1.038,1.032,1.057,1.07,0.9365,0.7184,0.2303,0.05821,1.021,,,,,,,,,,,N=C(N)c1ccc(CNC(=O)CCCC(=O)NCCNC(=S)Nc2cccc(I)c2)cc1 [Compound T-1],"mean (Figure 3c, dose-response, relative trypsin activity) (bovine trypsin; Concentration 830000 nM, fraction of uninhibited activity): 0.00834"
,,,,,,,,,,101,100,96.7,90.2,78.3,56.6,33.3,19.1,11.8,2.02 ± 0.31,NS(=O)(=O)c1ccc(NC(=O)COCC(=O)NCCNC(=O)/C=C/c2ccc(-c3ccccc3C(F)(F)F)o2)cc1 [Compound C-5],
